# Key:
# soybean = assay: Test B pre/postemergence soybean; assay type: in vivo, Glycine max
# Outline: (§1)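 Test chemicals in a non-phytotoxic solvent mixture with surfactant were sprayed preemergence onto planted seeds and postemergence onto plants 2 to 18 cm tall (1- to 4-leaf stage). After twelve to sixteen days in a greenhouse, injury was visually rated against untreated controls from 0 (no effect) to 10 (complete control).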
# cocklebur = assay: Test B pre/postemergence cocklebur; assay type: in vivo, Xanthium strumarium
# Outline: as §1
# duck salad = assay: Test B flood test duck salad; assay type: in vivo, Heteranthera limosa
# Outline: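 Plants were grown to the 2-leaf stage before treatment with test chemical, then held in a greenhouse for twelve to sixteen days. Injury was visually rated against untreated controls on a 0–10 scale, where 0 is no effect and 10 is complete control.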
# morningglory = assay: Test B pre/postemergence morningglory; assay type: in vivo, Ipomoea hederacea
# Outline: as §1
# giant foxtail = assay: Test B pre/postemergence giant foxtail; assay type: in vivo, Setaria faberii
# Outline: as §1
# crabgrass = assay: Test B pre/postemergence crabgrass; assay type: in vivo, Digitaria sanguinalis
# Outline: as §1
# surinam grass = assay: Test B pre/postemergence surinam grass; assay type: in vivo, Brachiaria decumbens
# Outline: as §1
# purple nutsedge = assay: Test B pre/postemergence purple nutsedge; assay type: in vivo, Cyperus rotundus
# Outline: as §1
# rape = assay: Test B pre/postemergence rape; assay type: in vivo, Brassica napus
# Outline: as §1
# wheat = assay: Test B pre/postemergence wheat; assay type: in vivo, Triticum aestivum
# Outline: as §1
# bedstraw = assay: Test B pre/postemergence bedstraw; assay type: in vivo, Galium aparine
# Outline: as §1
# sugar beet = assay: Test B pre/postemergence sugar beet; assay type: in vivo, Beta vulgaris
# Outline: as §1
# pigweed = assay: Test B pre/postemergence pigweed; assay type: in vivo, Amaranthus retroflexus
# Outline: as §1
# velvetleaf = assay: Test B pre/postemergence velvetleaf; assay type: in vivo, Abutilon theophrasti
# Outline: as §1
# corn = assay: Test B pre/postemergence corn; assay type: in vivo, Zea mays
# Outline: as §1
# [1] = Preemergence, Rate 62 g/ha, scale of 0 to 10 where 0 is no effect and 10 is complete control
# [2] = Preemergence, Rate 125 g/ha, 0 is no effect, 10 is complete control
# [3] = Preemergence, Rate 250 g/ha, scale 0 to 10, 0 is no effect, 10 is complete control
# [4] = Preemergence, Rate 500 g/ha, scale of 0 to 10 where 0 is no effect and 10 is complete control
# [5] = Rate 62 g/ha, Postemergence, scale of 0 to 10 where 0 is no effect and 10 is complete control
# [6] = Rate 125 g/ha, Postemergence, scale 0 to 10
# [7] = Rate 500 g/ha, Postemergence, scale 0 to 10
smiles,measurement,setting,value
C=C(C)CCn1c(=O)on(C(=O)N(c2ccc(F)cc2)C(C)C)c1=O [Compound 199],Soybean plant response rating,soybean; [1],0
same,Soybean plant response rating (0 to 10 scale),soybean; [2],0
same,Soybean plant response rating,soybean; [3],0
same,"Plant response rating, Soybean",soybean; [4],0
same,Soybean plant response rating,soybean; [5],2
same,Soybean plant response rating,soybean; [6],2
same,"Plant response rating (0 to 10; 0 is no effect, 10 is complete control), Soybean","soybean; Rate 250 g/ha, Postemergence",7
same,Soybean plant response rating,soybean; [7],7
same,Cocklebur plant response rating,cocklebur; [1],0
same,Cocklebur plant response rating (0 to 10 scale),cocklebur; [2],0
same,Cocklebur plant response rating,cocklebur; [3],0
same,"Plant response rating, Cocklebur",cocklebur; [4],0
same,Cocklebur plant response rating,cocklebur; [5],0
same,Cocklebur plant response rating,cocklebur; [6],0
same,"Plant response rating (0 to 10; 0 is no effect, 10 is complete control), Cocklebur","cocklebur; Rate 250 g/ha, Postemergence",0
same,Cocklebur plant response rating,cocklebur; [7],3
same,Ducksalad plant response rating,"duck salad; Rate 62 g/ha, Postemergence section, flood test species, scale of 0 to 10 where 0 is no effect and 10 is complete control",0
same,Ducksalad plant response rating,"duck salad; Rate 125 g/ha, listed under Postemergence (flood test species), scale 0 to 10",0
same,"Plant response rating (0 to 10; 0 is no effect, 10 is complete control), Ducksalad","duck salad; Rate 250 g/ha, Postemergence section, flood test species",0
same,Ducksalad plant response rating,"duck salad; Rate 500 g/ha, listed under Postemergence (flood test species), scale 0 to 10",2
same,Morningglory plant response rating,morningglory; [1],0
same,Morningglory plant response rating (0 to 10 scale),morningglory; [2],0
same,Morningglory plant response rating,morningglory; [3],0
same,"Plant response rating, Morningglory",morningglory; [4],0
same,Morningglory plant response rating,morningglory; [5],4
same,Morningglory plant response rating,morningglory; [6],4
same,"Plant response rating (0 to 10; 0 is no effect, 10 is complete control), Morningglory","morningglory; Rate 250 g/ha, Postemergence",4
same,Morningglory plant response rating,morningglory; [7],8
same,Giant foxtail plant response rating,giant foxtail; [1],7
same,Giant foxtail plant response rating (0 to 10 scale),giant foxtail; [2],10
same,Giant foxtail plant response rating,giant foxtail; [3],10
same,"Plant response rating, Giant foxtail",giant foxtail; [4],10
same,Giant foxtail plant response rating,giant foxtail; [5],0
same,Giant foxtail plant response rating,giant foxtail; [6],2
same,"Plant response rating (0 to 10; 0 is no effect, 10 is complete control), Giant foxtail","giant foxtail; Rate 250 g/ha, Postemergence",2
same,Giant foxtail plant response rating,giant foxtail; [7],7
same,Crabgrass plant response rating,crabgrass; [1],6
same,Crabgrass plant response rating (0 to 10 scale),crabgrass; [2],6
same,Crabgrass plant response rating,crabgrass; [3],10
same,"Plant response rating, Crabgrass",crabgrass; [4],10
same,Crabgrass plant response rating,crabgrass; [5],0
same,Crabgrass plant response rating,crabgrass; [6],2
same,"Plant response rating (0 to 10; 0 is no effect, 10 is complete control), Crabgrass","crabgrass; Rate 250 g/ha, Postemergence",8
same,Crabgrass plant response rating,crabgrass; [7],8
same,B. signalgrass plant response rating,surinam grass; [1],0
same,B. signalgrass plant response rating (0 to 10 scale),surinam grass; [2],1
same,B. signalgrass plant response rating,surinam grass; [3],6
same,"Plant response rating, B. signalgrass",surinam grass; [4],9
same,B. signalgrass plant response rating,surinam grass; [5],0
same,B. signalgrass plant response rating,"surinam grass; Rate 125 g/ha, Postemergence, scale 0 (no effect) to 10 (complete control)",0
same,"Plant response rating, B. signalgrass","surinam grass; Rate 250 g/ha, Postemergence, scale 0 to 10, 0 is no effect, 10 is complete control",0
same,Nutsedge plant response rating,purple nutsedge; [1],0
same,Nutsedge plant response rating (0 to 10 scale),purple nutsedge; [2],0
same,Nutsedge plant response rating,purple nutsedge; [3],0
same,"Plant response rating, Nutsedge",purple nutsedge; [4],10
same,Nutsedge plant response rating,purple nutsedge; [5],0
same,Nutsedge plant response rating,purple nutsedge; [6],0
same,"Plant response rating (0 to 10; 0 is no effect, 10 is complete control), Nutsedge","purple nutsedge; Rate 250 g/ha, Postemergence",0
same,Nutsedge plant response rating,purple nutsedge; [7],0
same,Rape plant response rating,rape; [1],0
same,Rape plant response rating (0 to 10 scale),rape; [2],0
same,Rape plant response rating,rape; [3],0
same,"Plant response rating, Rape",rape; [4],0
same,Rape plant response rating,rape; [5],0
same,Rape plant response rating,rape; [6],0
same,"Plant response rating (0 to 10; 0 is no effect, 10 is complete control), Rape","rape; Rate 250 g/ha, Postemergence",0
same,Rape plant response rating,rape; [7],0
same,Wheat plant response rating,wheat; [1],0
same,Wheat plant response rating,wheat; [3],0
same,"Plant response rating, Wheat",wheat; [4],0
same,Wheat plant response rating,wheat; [5],0
same,Wheat plant response rating,wheat; [6],2
same,"Plant response rating (0 to 10; 0 is no effect, 10 is complete control), Wheat","wheat; Rate 250 g/ha, Postemergence",3
same,Bedstraw plant response rating,bedstraw; [1],0
same,Bedstraw plant response rating (0 to 10 scale),bedstraw; [2],0
same,Bedstraw plant response rating,bedstraw; [3],0
same,"Plant response rating, Bedstraw",bedstraw; [4],0
same,Bedstraw plant response rating,bedstraw; [5],0
same,Bedstraw plant response rating,bedstraw; [6],0
same,"Plant response rating (0 to 10; 0 is no effect, 10 is complete control), Bedstraw","bedstraw; Rate 250 g/ha, Postemergence",0
same,Bedstraw plant response rating,bedstraw; [7],2
same,Sugarbeets plant response rating,sugar beet; [1],4
same,Sugarbeets plant response rating (0 to 10 scale),sugar beet; [2],5
same,Sugarbeets plant response rating,sugar beet; [3],5
same,"Plant response rating, Sugarbeets",sugar beet; [4],6
same,Sugarbeets plant response rating,sugar beet; [5],0
same,Sugarbeets plant response rating,sugar beet; [6],0
same,"Plant response rating (0 to 10; 0 is no effect, 10 is complete control), Sugarbeets","sugar beet; Rate 250 g/ha, Postemergence",0
same,Sugarbeets plant response rating,sugar beet; [7],2
same,Redroot pigweed plant response rating,pigweed; [1],7
same,Redroot pigweed plant response rating (0 to 10 scale),pigweed; [2],7
same,Redroot pigweed plant response rating,pigweed; [3],10
same,"Plant response rating, Redroot pigweed",pigweed; [4],10
same,Redroot pigweed plant response rating,pigweed; [5],0
same,Redroot pigweed plant response rating,pigweed; [6],0
same,"Plant response rating (0 to 10; 0 is no effect, 10 is complete control), Redroot pigweed","pigweed; Rate 250 g/ha, Postemergence",2
same,Redroot pigweed plant response rating,pigweed; [7],6
same,Velvetleaf plant response rating,velvetleaf; [1],0
same,Velvetleaf plant response rating,velvetleaf; [3],0
same,"Plant response rating, Velvetleaf",velvetleaf; [4],0
same,Velvetleaf plant response rating,velvetleaf; [5],0
same,Velvetleaf plant response rating,velvetleaf; [6],0
same,"Plant response rating (0 to 10; 0 is no effect, 10 is complete control), Velvetleaf","velvetleaf; Rate 250 g/ha, Postemergence",0
same,Corn plant response rating,corn; [1],0
same,Corn plant response rating (0 to 10 scale),corn; [2],0
same,Corn plant response rating,corn; [3],0
same,"Plant response rating, Corn",corn; [4],0
same,Corn plant response rating,corn; [5],0
same,Corn plant response rating,corn; [6],0
same,"Plant response rating (0 to 10; 0 is no effect, 10 is complete control), Corn","corn; Rate 250 g/ha, Postemergence",0
same,Corn plant response rating,corn; [7],0
